Measurements published in patent publication US12427192B2, “Water soluble adjuvant and composition containing same” (Sumitomo Pharma Co., Ltd., priority 2019, dated 2025).
Values belong to the compound of their own block, whether it stands above or below them.

Assays:
mouse TLR7 = target: T1, mouse TLR7 (Mus musculus, UniProt P58681); assay: Mouse TLR7 reporter gene assay (HEK-Blue mTLR7 cell line), Test 2; type: cell-based; conditions: half of maximal SEAP induction, 20-24-hour incubation, 0.1% DMSO
T1 construct: expresses full-length mouse TLR7 and secretory SEAP reporter gene; host or cells: HEK-Blue mTLR7 (HEK293-derived)
T1 sequence (P58681 27-1050): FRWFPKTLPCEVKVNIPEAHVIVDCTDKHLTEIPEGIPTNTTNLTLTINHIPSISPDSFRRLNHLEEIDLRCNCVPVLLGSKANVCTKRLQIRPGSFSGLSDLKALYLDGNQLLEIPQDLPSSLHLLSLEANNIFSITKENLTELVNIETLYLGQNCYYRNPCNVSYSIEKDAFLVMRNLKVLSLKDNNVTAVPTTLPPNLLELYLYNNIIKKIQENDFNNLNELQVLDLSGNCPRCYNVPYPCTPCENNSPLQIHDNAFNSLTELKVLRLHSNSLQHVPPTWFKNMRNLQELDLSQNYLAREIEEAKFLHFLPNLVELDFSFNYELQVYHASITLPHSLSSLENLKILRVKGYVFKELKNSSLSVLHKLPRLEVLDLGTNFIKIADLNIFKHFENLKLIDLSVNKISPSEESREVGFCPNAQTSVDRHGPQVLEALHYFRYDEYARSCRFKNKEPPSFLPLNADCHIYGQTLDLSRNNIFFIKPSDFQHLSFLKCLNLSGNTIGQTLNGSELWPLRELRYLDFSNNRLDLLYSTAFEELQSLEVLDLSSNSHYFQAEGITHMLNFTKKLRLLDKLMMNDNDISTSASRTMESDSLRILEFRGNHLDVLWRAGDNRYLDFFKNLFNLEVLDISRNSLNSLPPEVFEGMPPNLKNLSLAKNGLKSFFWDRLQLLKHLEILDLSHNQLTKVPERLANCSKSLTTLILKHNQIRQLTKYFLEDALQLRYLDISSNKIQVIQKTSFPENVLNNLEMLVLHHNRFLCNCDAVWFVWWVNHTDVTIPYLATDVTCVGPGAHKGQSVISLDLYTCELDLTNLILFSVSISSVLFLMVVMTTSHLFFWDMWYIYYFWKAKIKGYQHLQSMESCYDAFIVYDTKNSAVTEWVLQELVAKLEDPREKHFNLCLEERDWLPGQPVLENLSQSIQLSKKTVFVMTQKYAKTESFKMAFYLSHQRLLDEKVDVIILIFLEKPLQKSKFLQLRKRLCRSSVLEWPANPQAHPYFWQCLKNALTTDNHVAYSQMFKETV
Text: Test 2 Mouse TLR7 Reporter Gene Assay
HEK-Blue™ mTLR7 cell line (Invivogen) is a stably co-transfected cell line which expresses full-length mouse TLR7 and secretory SEAP reporter gene under the transcriptional regulation of an NF-κB response element. The TLR7 expression of the cell line has been already tested by RT-PCR. Transfectants with stable expression were selected using the antibiotic blasticidin and Zeocin. TLR signaling leads to the translocation of NF-κB and the activation of the promoter results in expression of the SEAP gene. TLR7-specific activation was assessed by determining the level of SEAP produced following 20-24-hour incubation of the cells at 37° C. with each compound prepared in Examples and Reference examples in the presence of 0.1% (v/v) DMSO. The mouse TLR7 activity for the present compound was assessed by mouse TLR7 reporter gene assay, and the results are shown in Tables 5 and 6 as the compound concentration which produced half of the maximal level of SEAP induction (EC50).

human TLR7 [1] = target: T2, human TLR7 (Homo sapiens, UniProt Q9NYK1); assay: Human TLR7 reporter gene assay (TLR7/NF-κB/SEAPorter HEK293 cell line), Tests 1 and 21; type: cell-based
T2 construct: expresses full-length human TLR7 and secretory alkaline phosphatase (SEAP) reporter gene; host or cells: HEK293 (TLR7/NF-κB/SEAPorter)
T2 sequence (Q9NYK1 27-1049): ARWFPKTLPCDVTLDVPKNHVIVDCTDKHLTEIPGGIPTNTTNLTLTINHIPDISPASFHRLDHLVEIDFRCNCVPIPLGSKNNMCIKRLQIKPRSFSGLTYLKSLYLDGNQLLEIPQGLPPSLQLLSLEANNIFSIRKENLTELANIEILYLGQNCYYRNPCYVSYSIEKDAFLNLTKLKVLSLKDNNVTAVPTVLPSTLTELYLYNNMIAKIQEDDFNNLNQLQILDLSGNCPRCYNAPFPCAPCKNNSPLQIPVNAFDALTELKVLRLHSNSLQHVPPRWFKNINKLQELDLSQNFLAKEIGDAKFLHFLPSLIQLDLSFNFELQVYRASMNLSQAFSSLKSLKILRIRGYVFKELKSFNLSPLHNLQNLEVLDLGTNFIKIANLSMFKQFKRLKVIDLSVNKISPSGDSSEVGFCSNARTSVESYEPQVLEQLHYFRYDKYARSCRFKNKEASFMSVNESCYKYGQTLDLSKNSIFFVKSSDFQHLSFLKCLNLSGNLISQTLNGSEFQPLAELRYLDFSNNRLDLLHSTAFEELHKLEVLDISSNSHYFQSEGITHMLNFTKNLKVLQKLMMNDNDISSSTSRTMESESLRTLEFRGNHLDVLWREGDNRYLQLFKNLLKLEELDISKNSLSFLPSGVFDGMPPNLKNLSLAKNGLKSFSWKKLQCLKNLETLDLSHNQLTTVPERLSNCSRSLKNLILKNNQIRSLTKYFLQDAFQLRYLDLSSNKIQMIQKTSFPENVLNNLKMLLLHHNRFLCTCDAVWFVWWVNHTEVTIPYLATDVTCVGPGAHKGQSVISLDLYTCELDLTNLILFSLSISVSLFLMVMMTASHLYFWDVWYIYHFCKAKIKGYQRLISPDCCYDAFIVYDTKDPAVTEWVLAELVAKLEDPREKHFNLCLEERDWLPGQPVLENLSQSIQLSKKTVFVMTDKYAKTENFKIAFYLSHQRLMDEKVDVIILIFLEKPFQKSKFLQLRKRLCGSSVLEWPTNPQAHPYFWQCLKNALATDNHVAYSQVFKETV
Text: Human TLR7 Reporter Gene Assay
(§1) TLR7/NF-κB/SEAPorter™ HEK293 cell line (Imgenex Corporation) is a stably co-transfected cell line which expresses full-length human TLR7 and secretory alkaline phosphatase (SEAP) reporter gene under the transcriptional regulation of an NF-κB response element. The TLR7 expression of the cell line has been already tested by flow cytometry. Transfectants with stable expression were selected using the antibiotic blasticidin and Geneticin. TLR signaling leads to the translocation of NF-κB and the activation of the promoter results in expression of the SEAP gene. TLR7-specific activation was assessed by determining the level of SEAP produced following 24-hour incubation of the cells at 37° C. with each compound prepared in Examples and Reference examples in the presence of 0.1% (v/v) dimethylsulfoxide (DMSO). The human TLR7 activity for the present compound was assessed by human TLR7 reporter gene assay, and the results are shown in Tables 3 and 4 as the compound concentration which produced half of the maximal level of SEAP induction (EC50)
According to the method of Test 1, human TLR7 reporter gene assay was done with the following samples, and the result was shown in the table below.

human TLR7 [2] = target: T2, human TLR7; assay: Human TLR7 reporter gene assay (HEK-Blue hTLR7 cell line), Test 22; type: cell-based; conditions: method of Test 1
Text: as §1
According to the method of Test 1, human TLR7 reporter gene assay was done with the following samples, and the result was shown in the table below. The cell used herein was HEK-Blue™ hTLR7 cell line (Invivogen). HEK-Blue™ hTLR7 cell line is a stably co-transfected cell line which expresses full-length human TLR7 and secretory SEAP reporter gene under the transcriptional regulation of an NF-κB response element. The TLR7 expression of the cell line has been already tested by RT-PCR. Transfectants with stable expression were selected using the antibiotic blasticidin and Zeocin.

[3] = test system: HLA-A*02:01 transgenic mouse; assay: Test 9: in vivo adjuvant activity, cocktail vaccine b, IFNγ ELISPOT; conditions: added to cocktail vaccine b; Peptide SEQ ID No. 1 or SEQ ID No. 4; 0.4 nmol per body, twice; FIG. 6 and 7
Experimental: Evaluation of In Vivo Adjuvant Activity in HLA-A*02:01 Transgenic Mouse
The in vivo adjuvant activity of the compounds prepared in Examples 8, 9, and 10 and the compound prepared in Reference example 12 was evaluated in the following procedure. To cocktail vaccine b comprising Compound of formula 4 prepared in Reference example 8 and Peptide SEQ ID No. 3 prepared in Reference example 3 with Montanide ISA51 VG was added the compound prepared in Example 8, 9, or 10, or the compound prepared in Reference example 12 to prepare each vaccine. The vaccine was administered to a HLA-A*02:01 transgenic mouse, and the adjuvant activity of each vaccine was evaluated by the method of testing antigen-specific CTL induction.
Specifically, Compound of formula 4 and Peptide SEQ ID No. 3 were dissolved in DMSO, and then diluted with water for injection to concentrations of Compound of formula 4 of 3 mg/mL and Peptide SEQ ID No. 3 of 2.25 mg/mL. The diluted peptide solution was mixed and emulsified with an equal volume of Montanide ISA 51 VG to prepare cocktail vaccine b. Cocktail vaccine b was injected to mice intradermally at the tail base area in an amount for administering 300 μg of Compound of formula 4 per body and 225 μg of Peptide SEQ ID No. 3 per body. Or, in the step of preparing cocktail vaccine b, the compound prepared in Example 8, 9, or 10, or the compound prepared in Reference example 12 was added to the diluted peptide solution to prepare a vaccine, and the prepared vaccine was injected to mice intradermally at the tail base area in an amount for administering 300 μg of Compound of formula 4 per body, 225 μg of Peptide SEQ ID No. 3 per body, and 0.4 nmol of the compound prepared in Example 8, 9, or 10, or the compound prepared in Reference example 12 per body. The administrations were done twice, which had one week interval. One week after the final administration, the mice were sacrificed with CO2 gas. Splenocytes were harvested from spleens removed from the mice. Like Test 4, Peptide (SEQ ID No. 1 or SEQ ID No. 4) was added to the splenocyte-containing ELISPOT plate at a final concentration of 10 μg/ml, and the plate was incubated overnight at 37° C. under an atmosphere of 5% CO2 to re-stimulate the peptide in vitro. Then, after removal of the supernatant from the wells, stained spots on the ELISPOT plate were counted.

[4] = Test 1, TLR7/NF-κB/SEAPorter HEK293 cell line, half of maximal SEAP induction, 24-hour incubation, 0.1% DMSO, read-out: EC50
[5] = Test 21, according to the method of Test 1, read-out: human EC50

- EC50 (mouse TLR7): 21 nM
- EC50 (human TLR7 [1]; [4]): 94 nM
Compound: CCC[C@@H](CCO)Nc1nc(N)nc(C)c1Cc1ccc(CN(C)CCOCCOCCOCCOCCO)cc1OC [Example 2, 1-{4-[(2-amino-4-{[(3S)-1-hydroxyhexan-3-yl]amino}-6-methylpyrimidin-5-yl)methyl]-3-methoxyphenyl}-2-methyl-5,8,11,14-tetraoxa-2-azahexadecan-16-ol-trifluoroacetate]

- EC50 (human TLR7 [1]; [5]): 637 nM
Compound: CCCCCNc1nc(N)nc(C)c1Cc1cc(CN(C)CCOCCOCCOCCOCCO)ccc1OC [Example 3, 1-(3-{[2-amino-4-methyl-6-(pentylamino)pyrimidin-5-yl]methyl}-4-methoxyphenyl)-2-methyl-5,8,11,14-tetraoxa-2-azahexadecan-16-ol-trifluoroacetate]

- EC50 (human TLR7 [2]): 7270 nM
Compound: CCC[C@@H](CO)Nc1nc(N)nc(C)c1Cc1ccc(C(=O)NCCOCCOCCOCCOCCOCCOCCO)cc1OC [Example 5, 4-[(2-amino-4-{[(2S)-1-hydroxypentan-2-yl]amino}-6-methylpyrimidin-5-1)methyl]-N-(20-hydroxy-3,6,9,12,15,18-hexaoxaicosan-1-yl)-3-methoxybenzamide]

- EC50 (human TLR7 [1]; [5]): 388 nM
Compound: CCCCCNc1nc(N)nc(C)c1Cc1ccc(CN(C)CCOCCOCCOCCOCCOCCOCCOCCOCCOCCO)cc1OC [Example 8, 1-(4-{[2-amino-4-methyl-6-(pentylamino)pyrimidin-5-yl]methyl}-3-methoxyphenyl)-2-methyl-5,8,11,14,17,20,23,26,29-nonaoxa-2-azahentriacontan-31-ol]
- CTL counts responsive to the peptide compared with Reference example 12 [3]: more
- CTL counts responsive to the peptide compared with adding no compound [3]: more

- EC50 (human TLR7 [1]; [5]): 3990 nM
Compound: CCCCCNc1nc(N)nc(C)c1Cc1ccc(CN(C)CCOCCOCCOCCOCCOCCOCCOCCOCCOCCOCCOCCOCCOCCOCCOCCOCCOCCOCCOCCOCCOCCOCCOCCO)cc1OC [Example 9, 1-(4-{[2-amino-4-methyl-6-(pentylamino)pyrimidin-5-yl]methyl}-3-methoxyphenyl)-2-methyl-5,8,11,14,17,20,23,26,29,32,35,38,41,44,47,50,53,56,59,62,65,68,71-tricosaoxa-2-azatriheptacontan-73-ol]
- CTL counts responsive to the peptide compared with Reference example 12 [3]: more
- CTL counts responsive to the peptide compared with adding no compound [3]: more

- EC50 (human TLR7 [1]; [5]): 3810 nM
Compound: CCCCCNc1nc(N)nc(C)c1Cc1ccc(CN(C)CCOCCOCCOCCOCCOCCOCCOCCOCCOCCOCCOCCOCCOCCOCCOCCOCCOCCOCCOCCOCCOCCOCCOCCOCCOCCOCCOCCOCCOCCOCCOCCOCCOCCOCCOCCO)cc1OC [Example 10, 1-(4-{[2-amino-4-methyl-6-(pentylamino)pyrimidin-5-yl]methyl}-3-methoxyphenyl)-2-methyl-5,8,11,14,17,20,23,26,29,32,35,38,41,44,47,50,53,56,59,62,65,68,71,74,77,80,83,86,89,92,95,98,101,104,107-pentatriacontaoxa-2-azanonahectan-109-ol]

- EC50 (mouse TLR7): 2 nM
- EC50 (human TLR7 [1]; [4]): 8 nM
Compound: CCC[C@@H](CCO)Nc1nc(N)nc(C)c1Cc1ccc(CNC)cc1OC [compound 11, (3S)-3-{[2-amino-5-({2-methoxy-4-[(methylamino)methyl]phenyl}methyl)-6-methylpyrimidin-4-yl]amino}hexan-1-ol, reference compound]
